One test concerns wt ARBTH. In words: In vitro plate test of herbicide cross resistance: wild-type Arabidopsis. Format: in vivo, Arabidopsis thaliana. As to conditions: 7 days. The protocol: (§1) The ability of AAD1 (v3) to provide resistance to other aryloxyphenoxyalkanoate herbicides in transgenic Arabidopsis was determined using a modified in vitro plate assay. Seeds from wild-type Arabidopsis thaliana as well as Arabidopsis thaliana containing the plant optimized AAD1 (v3) gene (T4 homozygous plants id=PAAD1.315.064) were sterilized by agitating for 10 min in a 50% bleach solution. These seeds were then rinsed four times with sterile water to remove the bleach.
(§2) Dose response assays utilized a nutrient media (see below) supplemented with various rates of test compounds. The test compounds were added to the heated media (55° C.) as concentrated solutions in DMSO. Control wells had the appropriate amount of DMSO without any additional compound. The final concentration of DMSO never exceeded 1% (v/v). After thorough mixing, a 6 mL aliquot of the warm media containing the appropriate concentration of compound was added to each well of a 6-well, flat bottom, polystyrene tissue culture tray (Falcon 353046, Becton Dickson and Company, Franklin Lakes, N.J.). After the media solidified, approximately 20 to 30 Arabidopsis seeds were applied on top of the solidified media and the remaining 2 mL of media was poured over the seeds. The plates were lightly agitated to disperse the seeds, covered and allowed to cool until the media had completely solidified. The plates were incubated for 7 days at 25° C. under continual fluorescent lighting (75 μE m^−2 s^−1). Nutrient Media Composition was as described in Example 2.2 and in Somerville and Orgen (1982).
(§3) Assessment of Growth Reduction. The apical portion of the Arabidopsis plants grown in the treated media was assessed visually relative to the apical portion of the plants grown in the media containing only DMSO. Values were recorded as % growth reduction. Assessments of root growth inhibition of the Arabidopsis plants grown in the treated media were achieved by carefully extracting the plants from the media and measuring the length of the root. These root lengths were then compared to the root length of the control plants to determine a % growth reduction. A minimum of five plants were assessed for each treatment. The values recorded are an average of all the plants assessed. The calculated concentration to reach 50% inhibition effect (I50) were determined for both root and shoots of wildtype and AAD1-transformed Arabidopsis. The ratios of resistant to sensitive biotypes are included in Table 19. A ratio>2 for both root and shoot measurements generally signifies significant resistance. The higher the ratio, the greater the level of resistance. […] The broad phenoxy auxin resistance is the first reported in planta.

For test [1], the system named is Arabidopsis thaliana var. Columbia. Put plainly: Arabidopsis plate test bioassay for herbicide degradation. The format is in vivo. The following applies: for IC50: Arabidopsis thaliana, 168 h.
Test [2] concerns T4 Arabidopsis homozygous for AAD1 (v3) (line AAD1.01.315.076). In words: Foliar-applied auxinic herbicides on homozygous T4 AAD1 (v3) Arabidopsis, % injury 14 DAT. Format: in vivo, Arabidopsis thaliana. The following applies: AAD1.01.315.076.T4 homozygous AAD1 plants. The procedure, abridged:
(§4)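 Homozygous T4 AAD1 (v3) Arabidopsis (line AAD1.01.315.076) and a PAT/Cry1F transformed control were grown in pots and track-sprayed foliarly at 187 L/ha with herbicides formulated in 200 mM Hepes pH 7.5. Injury was rated 14 days after treatment, with 3-4 replicates averaged over two experiments.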

The subject of test [3] is transformed-control line containing PAT and Cry1F. In words: Foliar-applied auxinic herbicides on control (PAT/Cry1F, wildtype) Arabidopsis, % injury 14 DAT. Format: in vivo, Arabidopsis thaliana. As to conditions: PatCry1f - Control. Put shortly:
as §4

In a further test the target is T1, AAD1 (v1) (Sphingobium herbicidovorans, UniProt Q8KSC8).
T1 construct: made in house; host or cells: E. coli BL-21 Star (DE3), plasmid pDAB3203
In words: HPLC analysis of herbicide degradation by AAD1 (v1) cell extract. The format is biochemical. The following applies: AAD1 (v1) cell extract, same conditions as 2,4-D.

The subject of another test is PAAD1.315.064 ARBTH. In words: In vitro plate test of herbicide cross resistance: homozygous T4 AAD1 (v3) Arabidopsis. The format is in vivo, Arabidopsis thaliana. The protocol:
as §1, §2, §3

For test [4], the system named is Non-transformed Hi-II callused suspension tissue. Put plainly: Dose response of non-transformed maize callus tissue. Format: cell-based.
Test [5] has as its system DAS Soybean cell suspensions. Put plainly: Glufosinate selection of soybean suspension cells. Format: cell-based. The protocol: The DAS Soybean cell suspensions were cultured on a 3 d cycle with 10 ml of settled suspension volume transferred to 115 ml of fresh liquid medium. Settled cell volume was determined by allowing the cell suspension to settle for 2 min in the 125-mL flask after vigorous swirling and then drawing cells from the bottom of the flask with a wide bore 10 ml pipette. The flasks were then transferred to orbital shakers at 140 rpm.
Aliquots of 4 ml of the suspension cells at 0.72 OD^600 was transferred along with 200 μM acetosyringone (AS) onto a 100×25 sterile Petri plate. EHA105 Agrobacterium suspension at a density of 1.2 OD^650 in a 100 μL volume was added and mixed well. The Agrobacterium and suspension cell mixture was swirled well and the plate was transferred to dark growth chamber where the temperature was maintained at 25° C.
13.2.1—Selection of soybean suspension cells and isolation of transformed colonies. After 4 days of co-cultivation the plate was swirled again to mix the suspension well and a 1.5 ml aliquot was transferred to the selection medium and spread on the gel medium on a 100×15 ml Petri-plate. […] After a 10 min drying in the hood the plates were incubated for 4 weeks in dark at 28° C. Colonies appeared in selection and a total of 11 colonies were transferred to fresh medium from 3 different experiments and maintained for 3-4 months. […]

The mark [6] stands for this setting: resistant to sensitive biotype, >2 signifies resistance.

Where two headings read alike, the source gives them in different places.

T1 sequence (Q8KSC8 whole entry): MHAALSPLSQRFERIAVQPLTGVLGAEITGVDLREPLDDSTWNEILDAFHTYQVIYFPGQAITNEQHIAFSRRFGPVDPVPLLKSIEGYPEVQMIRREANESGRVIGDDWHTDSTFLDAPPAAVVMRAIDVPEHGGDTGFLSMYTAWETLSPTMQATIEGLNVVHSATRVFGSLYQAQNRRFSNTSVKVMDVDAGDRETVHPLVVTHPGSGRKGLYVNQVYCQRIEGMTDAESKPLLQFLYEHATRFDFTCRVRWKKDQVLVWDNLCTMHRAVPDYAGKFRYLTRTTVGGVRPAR

Consider `O=C(O)COc1nc(Cl)c(Cl)cc1Cl` [Triclopyr], for which the “wt ARBTH root 150” value in the test with wt ARBTH (root) is 0.02 ppm. For the same molecule, the “wt ARBTH shoot 150” value in the test on wt ARBTH (shoot) was 0.2 ppm. The IC50 in test [1] (AAD1 (v1)-expressing lysate, nominal concentration, read-out: GR50, Chemical + AAD1 v1) stood at 1000 nM; in test [1] (root length, 7 days, read-out: GR50, Chemical alone) it was 255 nM. In addition, in test [1] (enzyme-expressing lysate vs blank vector, ≥ 2 = threshold for activity loss), the GR50 ratio came out at 1. Moreover, the “Ave % Injury 14DAT” value in test [2] (50 g ae/ha foliar) came to 31%; in test [2] (200 g ae/ha foliar) it was 58%; in test [2] (800 g ae/ha foliar) it was 74%; in test [2] (3200 g ae/ha foliar), 97%; in test [3] (50 g ae/ha foliar), 36%; in test [3] (200 g ae/ha foliar) it was 65%. The results for the “Ave % Injury 14DAT” value in test [3] (800 g ae/ha foliar) and in test [3] (3200 g ae/ha foliar) were 84% and 95%, respectively. Besides, on AAD1 (v1), the “enzyme activity on substrate (HPLC)” value is reported as “No enzyme activity was detected”. For the same molecule, the root ratio in the test on PAAD1.315.064 ARBTH (setting [6]) turned out to be 1. Also, the shoot ratio in the test with PAAD1.315.064 ARBTH (setting [6]) is on record as 0.2. The “resistance afforded by AAD1 (v3) in plate test” value in the test with PAAD1.315.064 ARBTH (root and shoot assessment) is on record as “did not effectively protect”. Moreover, the “PAAD1.315.064 ARBTH root 150” value in the test with PAAD1.315.064 ARBTH (root, 7 days) is 0.02 ppm. Also, in the test on PAAD1.315.064 ARBTH (shoot, 7 days), the “PAAD1.315.064 T3 ARBTH shoot 150” value is 0.04 ppm.

Turning to `Oc1ccc(Oc2ncc(C(F)(F)F)cc2Cl)cc1` [haloxyfop phenol], the “callus growth relative to control lacking haloxyfop phenol” value in test [4] (300 nM) was “equal to or greater than the control”.

In the case of `N#Cc1ccc(Oc2ccc(O)cc2)c(F)c1` [cyhalofop phenol], in test [4] (1 μM), the “callus growth relative to control without cyhalofop phenol” value is reported as 76%.

With `CP(=O)(O)CCC(N)C(=O)O` (centres unmarked) [glufosinate ammonium], the “response of non-transformed suspension cells” value in test [5] (0.5 mg/l) was “sensitive”. Further, in test [5] (5 mg/L (5× concentration), up to 4 months), the “response of transformed colonies” value is listed as “resistant”.

The record behind these values is patent US10450549B2, “Aryloxyphenoxypropionate tolerance in turfrgass species and use of AAD1 as a selectable marker” (Dow AgroSciences, LLC, priority 2004, dated 2019).
